Experimental data reported in US8052963B2, “[(4-oxo-4H-chromen-3-yl)hydroxymethyl]- or [(4-oxo-4H-chromen-3-yl)methyl]phosphonic acid derivatives” (Merck Patent Gesellschaft mit beschrankter Haftung, priority 2006, dated 2011).

Experiment: TEAC assay (trolox equivalent antioxidant activity assay)
Details: absorption at 734 nm measured after 6 minutes; relative to trolox = 1.0
Experimental: • a) The basis for the determination of the antioxidative efficacy is the so-called DPPH test, as described in Bünger et al. [Buenger, J., Ackermann, H., Jentzsch, A., Mehling, A., Pfizner, I., Reiffen, K.-A., Schroeder, K.-R., and Wollenweber U., An interlaboratory comparison of methods used to assess antioxidant potentials, Int. J. Cosm. Sci., 28 (2006) 1-12]. The anti-oxidative efficacy of [(7,8-dihydroxy-4-oxo-4H-chromen-3-yl)hydroxy-methyl]phosphonic acid is determined in the DPPH test. […] J. Cosm. Sci., 28 (2006), 1-12].
ABTS [2,2′-azinobis(3-ethylbenzothiazoline-6-sulfonic acid)] reacts with potassium peroxodisulfate by generating a stable free-radical cation which absorbs at 734 nm. The antioxidant measured reduces the free-radical cation and thus causes a weakening of the absorption capacity at 734 nm. The absorption is measured after a fixed time span of 6 minutes. The anti-oxidative potential of the substance measured is indicated as activity compared with trolox. The substance measured may be present dissolved in water or ethanol during the measurement.

SMILES | antioxidative potential, activity compared with trolox (TEAC)
O=c1c(C(O)P(=O)(O)O)coc2c(O)c(O)ccc12 (centres unmarked) [Example 1, [(7,8-dihydroxy-4-oxo-4H-chromen-3-yl)-hydroxymethyl]phosphonic acid] | 0.93
Cc1c(C)c2c(c(C)c1O)CCC(C)(C(=O)O)O2 (centres unmarked) [trolox, reference compound] | 1.0
